This is an account of results in patent US20250275993A1, “GLYCOSYLATION INHIBITORS AS THERAPEUTICS FOR STROKE” (The Regents of the University of California, priority 2022, published 2025).

Structures are written as SMILES.

The subject of one data set is skin wound. Briefly: Skin wound healing model (splinted wound). Type of data set: in vivo, mouse. The following applies: topical 20 μg daily; mice; PBS group 81.5%. From the text: The model has been previously described. Briefly, C57BL/6 female mice (8-10 weeks old) were obtained from Jackson labs (Sacramento, CA). A fresh, full-thickness punch wound (4 mm diameter) using a punch (Acu Punch, Acuderm inc. Ft. Lauderdale, FL) splinted with a sterile neoprene ring (6-mm outer diameter and 4-mm inner diameter), fastened with 5-6 sutures (4-0 nylon) under the influence of Isoflurane was created on the back of the animal in a Class II Biological Safety Cabinet. For all surgical procedures, sterile technique was followed. Buprenorphine was given subcutaneously prior to awakening from anesthesia for anticipated pain. Mice were monitored until fully awake and were housed individually to minimize damage/biting/fighting to the surgical site. […] Treatment agents were prepared in PBS, sterile-filtered and 25 μl solution was applied daily directly to a wound bed for the first 4-5 days under the influence of Isoflurane, followed by daily observation. Wound closure was monitored by regular imaging and the wound area was quantified using ImageJ (National Institutes of Health, Bethesda, MD, USA). […] Epithelial gap was measured histomorphometrically using AxioVision LE Rel.4.4 software. […] Small vessels stained positive for CD31 were counted microscopically on 10 fields (20×) taken around the wound.

In the next data set the test system is bFGFR 1 or β1 integrin. Kind of data set: Western blot of protein molecular mass in non-endothelial cells. Type of data set: cell-based. The following applies: 400 μM and 2 mM. As for the experimental part: Cells were allowed to reach-80% confluency in 12-well plates. […] At various time points, plates were taken out of the incubator and kept on ice. Cell monolayers were first washed once with ice-cold PBS before lysis with 250 μI of Pierce RIPA buffer (ThermoFisher Scientific, Rockford, IL) or use 50 mM Tris-HCl (pH 7.6), 150 mM NaCl, 10% Glycerol, 1% NP-40 containing protease/Phosphatase inhibitor cocktail (100×) (Cell signaling, #5872). Lysates were collected and mixed with 4× Bolt LDS Sample Buffer (Novex, Carlsbad, CA) in the presence of Halt protease inhibitors and phosphatase inhibitor cocktail (ThermoFisher scientific, #NP0007). The samples were subjected to SDS-PAGE (Bolt 4-12% Bis-Tris Plus, Invitrogen) using Bolt MES SDS running buffer or NuPAGE 3-8% Tris-Acetate gel using Tris-Acetate SDS running buffer (Novex). HUVECs (passage 6-8) were plated in EBM-2 basal medium (Lonza) with 0.2% FBS. Following overnight culture, cells were serum-starved in EBM-2 medium for 4 hrs prior to treatment with 50 ng/ml of VEGF165 or vehicle controls for various lengths. Equal amounts of protein lysates were analyzed by SDS-PAGE and blotted with the indicated antibodies. Proteins were transferred using Tris-Glycine buffer with 20% Methanol (Proteonomics grade) (Apex BioResearch Products). […]
On the technique in general: Immunoblotting shows a protein as a band on a membrane.

For data set [1] the following is noted: mouse, in vivo, po. The procedure:
Following oral administration, there was a relatively rapid decline in ManN plasma levels. Plasma free ManN levels reached a peak level of −100 nmol/ml plasma at 1 hr. […] 2 hours after oral feeding of 20% ManN, muscle samples were taken from the ischemic legs. A significant amount of ManN reached the ischemic legs, with 0.17+1−0.18 nmol/mg protein of free ManN and 0.91+1−0.24 nmol/mg protein of ManN-6p.
To test ManN stability in wound fluid collected from mice with skin infection as described below, 1.5 μl of 5% ManN solution was added to each 200 μl wound fluid which was first diluted 1:1 (v/v) with PBS. At each time point, samples were taken from 37° C. incubator and stored at −80° C. Plasma proteins were precipitated by adding ice cold acetonitrile to plasma: acetonitrile 1:3 (v/v) ratio. Samples were kept over ice for 1 hr and then centrifuged at 12000 g for 10 min at 7° C. to form a pellet. Supernatants were transferred to other tubed, dried down on a Speed Vac and then reconstituted in UltraPure distilled water and filtered through pre-washed Nanosep 3K Omega filters (Pall Corporation). The filtrate was dried down on Speed Vac. The dry samples were dissolved in 100 μl of water and 2 μl plasma or wound fluid sample was subjected to HPLC analysis. Neutral and amino sugars were separated on a Dionex CarboPac PAI column 4 mm×250 mm with 4 mm×50 mm guard column. An isocratic gradient of 19 mM sodium hydroxide with 0.95 mM sodium acetate was used at a flow rate of 1 ml/min with 20 min run. Data was collected using the Dionex ICS-3000 HPLC system with pulsed amperometric detector using standard Quad waveform. ManN was identified and quantified by comparison with monosaccharide standard using Thermo Scientific Chromeleon software. No ManN samples served as negative controls.

Take `N[C@H](C=O)[C@@H](O)[C@H](O)[C@H](O)CO` [ManN, 2-Amino-2-deoxy-D-mannose]: the “average closure of the wound on day 4” value in the data set with skin wound worked out at 75.6%. Further, the “molecular mass change of bFGFR 1 or β1 integrin in non-ECs” value in the data set on bFGFR 1 or β1 integrin is on record as “could induce molecular mass change”. For the same compound, in data set [1], the “plasma ManN after 3 hours relative to peak” value is “about half of that amount”, the “plasma free ManN peak level” value was approximately 100 nmol/ml plasma and the “time of plasma peak level” value came out at 1 h. For the same compound, in data set [1] (2 h), the “ManN-6p in ischemic leg muscle” value was 0.91+1−0.24 nmol/mg protein and the “free ManN in ischemic leg muscle” value is recorded as 0.17+1−0.18 nmol/mg protein.
